Results published in BindingDB's records for doi:10.1021/jm00114a015 (National Institute of Diabetes and Digestive and Kidney …, 1991).

Experiments:
[1] = Compound was tested for the inhibitory activity against Sigma opioid receptor by using [3H](+)-3-PPP as radioligand in guinea pig brain
[2] = as above; remark: listed apart in the source

| SMILES | Ki [1] | Ki [2] |
| --- | --- | --- |
| CCCN(CCc1ccc(Cl)c(Cl)c1)[C@@H]1CCCC[C@@H]1N1CCCC1 | 56 nM |  |
| CCN(CCc1ccc(Cl)c(Cl)c1)[C@H]1CCCC[C@H]1N1CCCC1 | 3.1 nM |  |
| CCN(CCc1ccc(Cl)c(Cl)c1)[C@@H]1CCCC[C@@H]1N1CCCC1 |  | 3.5 nM |
| CCCN(CCc1ccc(Cl)c(Cl)c1)[C@H]1CCCC[C@H]1N1CCCC1 | 140 nM |  |
| CN(Cc1ccc(Cl)c(Cl)c1)[C@H]1CCCC[C@H]1N1CCCC1 |  | 1.2 nM |
